One compound from paper PMC6017654, “Ionic Liquid-Promoted Synthesis of Novel Chromone-Pyrimidine Coupled Derivatives, Antimicrobial Analysis, Enzyme Assay, Docking Study and Toxicity Study” (Molecules : A Journal of Synthetic Chemistry and Natural …, 2018) can be followed below.

Structures are written as SMILES. A value given as a limit tells only on which side of the number the result lay.

Data set [1] has as its target DdlB from E.coli (Escherichia coli, UniProt P07862). As to the kind of experiment: D-Alanine-D-alanine ligase (DdlB) enzyme inhibition, malachite green method. It counts as biochemical. As to conditions: 37 °C, 30 min incubation, 5% DMSO. How it is done: The key enzyme involved in the peptidoglycan biosynthesis is D-alanine-D-alanine ligase (Ddl), making it an important target for drug discovery. Inhibition of DdlB as an essential enzyme in either Gram-positive or Gram-negative organisms leads to the loss of cell shape and integrity followed by bacterial death. The synthesized derivatives 4(a–f) and 6(a–f) were tested for their inhibitory activity on DdlB from E.coli. The results are presented as IC50 values.
The D-Ala-adding activity of DdlB ligase was monitored by the detection of orthophosphate generated during the reaction based on the colorimetric malachite green method described by Walsh et al.. […] All the compounds were soluble in the assay mixture containing 5% DMSO. After 30 min of incubation, 100 µL Biomol reagent was added. After 5 min, absorbance was read at 650 nm. Residual activity was calculated with respect to a similar assay without inhibitor. To exclude possible non-specific (promiscuous) inhibitors, representative compounds 4(a–f) and 6(a–f) were also tested in the presence of Tween (0.003%), Triton X-114 (0.005%), and SDS (420 µM), as described by McGovern et al.. No significant differences were found when compared to measurements without detergents.

For data set [2], the system named is Escherichia coli 1411. Briefly: In vitro antibacterial activity (MIC100, two fold serial dilution, NCCLS). It counts as cell-based. As to conditions: Escherichia coli, 1411, 24 h, read-out: MIC100. How it is done: (§1) All the synthesized compounds 4(a–f) and 6(a–f) were screened for their in vitro antibacterial activity against Staphylococcus aureus (NCIM-2901), Escherichia coli 1411 (standard laboratory strains) and Escherichia coli SM1411 (an acrAB deficient derivative of 1411). Minimum inhibitory concentration (MIC100) values were determined using methods recommended by National Committee for Clinical Laboratory Standards (NCCLS). Dimethyl sulfoxide (DMSO) was used as solvent control.
(§2) All the synthesized compounds 4(a–f) and 6(a–f) were screened for their in vitro antibacterial activity against Staphylococcus aureus (NCIM-2901) and Escherichia coli 1411 (standard laboratory strains) and Escherichia coli SM1411 (an acrAB deficient derivative of 1411). Minimum inhibitory concentration (MIC100) values were determined using the method recommended by National Committee for Clinical Laboratory Standards (NCCLS). In vitro antibacterial activities of the synthesized compounds 4(a–f) and 6(a–f) were tested in Nutrient Broth (NB) for Bacteria by the two fold serial dilution method. Seeded broth (broth containing microbial spores) was prepared in NB from 24 h old bacterial cultures on nutrient agar (Hi-media) at 37 ± 1 °C. The bacterial suspension was adjusted with sterile saline to a concentration of […]. The synthesized compounds and standard drug D-cycloserine were prepared by two fold serial dilutions to obtain the required concentrations. The tubes were incubated in BOD incubators at 37 ± 1 °C for bacteria. The MICs were recorded by visual observations after 24 h (for bacteria) of incubation.

Data set [3] relates to Escherichia coli SM1411 (an acrAB deficient derivative of 1411). The description is as above. As to conditions: 24 h, read-out: MIC100. It counts as cell-based. How it is done: as §1, §2
In data set [4] the test system is Staphylococcus aureus (NCIM-2901). The data set is described as above. As to conditions: Staphylococcus aureus, NCIM2901, 24 h, read-out: MIC100, S. aureus NCIM-2901, average of three readings. It counts as cell-based. The protocol:
as §1, §2

For data set [5], the system named is ergosterol biosynthesis in Candida albicans (NCIM-3471). Briefly: Ergosterol extraction and quantitation assay (UV sterol profile). It counts as cell-based. The note with it: C. albicans NCIM3471. The protocol:
Changes in this absorption pattern are therefore indicative of interference in the synthetic pathway of ergosterol.
A single Candida albicans (NCIM-3471) colony from an overnight Sabouraud dextrose agar plate culture was used to inoculate 50 mL of Sabouraud dextrose broth for control and for various concentrations of the molecules. The cultures were incubated for 16 hours and harvested by centrifugation at 2700 rpm (856× g) for five min. The net weight of the cell pellet was determined. Three mL of 25% alcoholic potassium hydroxide solution was added to each pellet and vortex mixed for one min. Cell suspensions were transferred to sterile borosilicate glass screw-cap tubes and were incubated in an 85 °C water bath for one hour. Following incubation, the tubes were allowed to cool. Sterols were then extracted by addition of a mixture of 1 mL of sterile distilled water and 3 mL of n-heptane followed by vigorous vortex mixing for 3 min. The heptane layer was transferred to a clean borosilicate glass screw-cap tube and stored at −20 °C. Prior to analysis, 0.6 mL aliquot of sterol extract was diluted five fold in 100% ethanol and scanned spectrophotometrically between 240 nm and 300 nm with a spectrophotometer (UV-Visible Spectrophotometer 2100, Thermo Fischer Scientific, Waltham, MA, USA). The presence of ergosterol and the late sterol intermediate 24(28)-dehydroergosterol (DHE) in the extracted sample results in a characteristic four-peaked curve. The absence of detectable ergosterol in extracts was indicated by a flat line.
Sterols were extracted from cells and spectral profiles between 240 and 300 nm were determined.

The nature of data set [6]: In vitro cytotoxicity, Sulforhodamine B (SRB) assay. It counts as cell-based, human. The note with it: human, range 80 to 0.55 μg/mL. The text has this:
(§3) Toxicity scrutiny of synthesized compounds at the early phase of research paves the way to clinical trials and reduces the failure of potential therapeutics at later stages of clinical trials. To scrutinize the safety and selectivity of antimicrobial activity of the synthesized compounds, the compounds 6c and 6f were appraised for their toxicity against HeLa (a human cervical cancer cell line) and PC-3 (human prostate cancer cell line) by the Sulforhodamine B (SRB) assay using adriamycin as a standard drug.
(§4) The images were captured using an Eclipse Ti-S Inverted Research Microscope (Nikon, Tokyo, Japan). Image processing software used was NIS-Elements.
(The SRB assay estimates cell density from bound dye.)

For data set [7], the system named is HeLa (human cervical cancer cell line). The description is as above. It counts as cell-based. The note with it: up to 80 µg/mL.
Source text: as §3, §4

Data set [8] has as its system Swiss albino mice. As to the kind of experiment: In vivo acute oral toxicity study and gross behavioral study (OECD guideline No. 425). The protocol: The in vivo acute oral toxicity and gross behavioral study results of the newly synthesized compounds 6c and 6f are as listed in Table 12 [26].
Each group, consisting of six Swiss albino mice (18–22 gm weight, overnight fasted), were kept in colony cage at 25 ± 2 °C with 55% relative humidity and 12 h of light and dark cycle. A specified dose of 100, 250, 500, 750, 1000, 1500 and 2000 mg/kg body weight of mice was administered orally as a single dose. The acute toxic symptoms and the behavioral changes produced by the test compounds were observed continuously for 4 h periods at 8th, 12th and 24th h on set of toxic symptoms and the gross behavioral changes were also recorded. These animals were maintained for further 10 days with observation made daily. The in vivo acute oral toxicity study was carried out at animal house at the Y.B. Chavan College of Pharmacy, Aurangabad IAEC approval number CPCSEA/IAEC/P’col-52/2015-16/115 [26].

As to `COc1ccc2occ(C3NC(=S)NC(C)=C3C(=O)NN)c(=O)c2c1` (centres unmarked) [Compound 6f, 4-(6-Methoxy-4-oxo-4H-chromen-3-yl)-6-methyl-2-thioxo-1,2,3,4-tetrahydropyrimidine-5-carbohydrazide], the IC50 (in general, the concentration that gives 50% inhibition) in data set [1] was more than 400 µM. The MIC in data set [2] is more than 60 µg/mL; in data set [3] it was more than 60 µg/mL; in data set [4], more than 200 µg/mL. Besides, the “ergosterol peak in UV sterol profile at the MIC value” in data set [5] (6f 24 µg/mL, miconazole 25 µg/mL, 281.5 nm) was “almost a flat peak”. The “ergosterol peak at 281.5 nm with increasing concentration” value in data set [5] (MIC/16 to MIC (1.5 to 24 µg/mL)) was “intensity of the ergosterol peak at 281.5 nm decreases”. Moreover, the GI50 (usually the concentration at which growth is held to half of that of the control) in data set [6] (HeLa cells, SRB assay) was more than 80 µg/mL; in data set [6] (PC-3 cells), more than 80 µg/mL. Further, in data set [7], the cell inhibition entry is on record as “cell inhibition did not occur”. In data set [8] (Swiss albino mice, single oral dose 100 to 2000 mg/kg), the “No. of Deaths” value is on record as “N”. Further, the lethal dose result in data set [8] (mice, oral, single dose, no mortality up to 2000 mg/kg) is reported as “above 2000 mg/kg body weight”.
